Values of other authors as cited in patent US20080161413A1, “Agent for increasing adiponectin in blood” (YAMAHA HATSUDOKI KABUSHIKI KAISHA, priority 2006, published 2008).

Tested on: adiponectin
Conditions: obese/diabetic mice

For `COc1cc(C(C)=O)ccc1O` [apocynin], the production of adiponectin is given as “increases”.
